Columns and labels:
Conditions in all cases: for Kd: ARS displacement, 0.1M phosphate buffer, pH 7.4, 25° C.
[1] = Alizarin Red S (ARS) displacement assay, binding to fructose
Protocol: (§1) The association constant for the binding event between Alizarin Red S (ARS) and the compounds of each of examples 1-24 was determined using standard methods in the art. Triplicate titrations of 10^-5 M ARS in 0.1M phosphate buffer, pH 7.4, were performed in a 96-well plate against serial dilutions of example compounds, ranging in concentration from 0-0.1M at 25° C. The example compound-ARS solution was incubated for 5-45 minutes at 25° C., and absorbance intensity was measured using excitation wavelength 468 nm and emission wavelength 585 nm. Changes in intensity were plotted against the concentration of the example compound, and the intensity data was fitted to yield an association constant for ARS binding.
(§2) The association constant for the binding between a target sugar compound (e.g., glucose) and a boronate compound was determined via the displacement of ARS bound to the example compounds. Triplicate wells of 10^-5 M ARS and 0.1M example compounds in 0.1M phosphate buffer, pH 7.4, were titrated in a 96-well plate against serial dilutions of the target sugar compound, ranging in concentration from 0-2.0 M at 25° C. The boronate-ARS-carbohydrate solution was incubated for 30-60 minutes at 25° C. and the intensity of each well was measured in a plate reader at excitation wavelength 468 nm and emission wavelength 585 nm. Changes in intensity were plotted against concentration of the target sugar compound, and the data was fitted to a one-site competition equation:
(§3) [formula] to yield an association constant for the boronate compound-target sugar compound binding event.

[2] = Alizarin Red S (ARS) displacement assay, binding to glucose
Protocol: as §1, §2, §3

[3] = Alizarin Red S (ARS) displacement assay, binding to lactate
Protocol: as §1, §2, §3

[4] = Example 7 (heterobifunctional, boroxole) compared to Example 5

Kd [1] | Kd [2] | Kd [3] | increase in affinity to glucose [2, 4] | increase in affinity to fructose [1, 4] | increase in affinity to lactate [3, 4] | Compound
1.7 mM | 25.2 mM | 38.3 mM | – | – | – | CS(=O)(=O)c1ccc(B(O)O)cc1C(=O)N[C@@H]1C[C@H](C(N)=O)N(C(=O)c2cc(B(O)O)ccc2S(C)(=O)=O)C1 [Example 1, (3-((2R,4R)-4-(5-borono-2-(methylsulfonyl)benzamido)-2-carbamoylpyrrolidine-1-carbonyl)-4-(methylsulfonyl)phenyl)boronic acid]
1.2 mM | 4.4 mM | 39.5 mM | ~7 fold | ~7 fold | ~7 fold | NC(=O)[C@H](CNC(=O)c1ccc2c(c1)B(O)OC2)NC(=O)c1cc(B(O)O)ccc1[N+](=O)[O-] [Example 7, (S)-(3-((1-amino-3-(J-hydroxy-1,3-dihydrobenzo[c][1,2]oxaborole-6-carboxamido)-1-oxopropan-2-yl)carbamoyl)-4-nitrophenyl)boronic acid]
9.36 mM | 93.7 mM | – | – | – | – | O=C(O)CN(Cc1cccc(CNC(=O)c2cc(Br)cc(B(O)O)c2)c1)C(=O)c1cc(Br)cc(B(O)O)c1 [Example 24, N-(3-((3-borono-5-bromobenzamido)methyl)benzyl)-N-(3-borono-5-bromobenzoyl)glycine]
6.04 mM | 95.4 mM | 67.5 mM | – | – | – | O=C(O)CN(C(=O)c1ccc(F)c(B(O)O)c1)[C@H]1CCCC[C@H]1NC(=O)c1ccc(F)c(B(O)O)c1 [Example 18, N-((1S,2R)-2-(3-borono-4-fluorobenzamido)cyclohexyl)-N-(3-borono-4-fluorobenzoyl)glycine]
13.5 mM | – | – | – | – | – | O=C(O)CN(Cc1ccc(CNC(=O)c2ccc(B(O)O)c(F)c2)cc1)C(=O)c1ccc(B(O)O)c(F)c1 [Example 21, N-(4-((4-borono-3-fluorobenzamido)methyl)benzyl)-N-(4-borono-3-fluorobenzoyl)glycine]
9.52 mM | 16.1 mM | 97.3 mM | – | – | – | O=C(O)CN(Cc1cccc(CNC(=O)c2ccc(B(O)O)c(F)c2)c1)C(=O)c1ccc(B(O)O)c(F)c1 [Example 22, N-(3-((4-borono-3-fluorobenzamido)methyl)benzyl)-N-(4-borono-3-fluorobenzoyl)glycine]
5.6 mM | 13 mM | – | – | – | – | NC(=O)[C@H](CNC(=O)c1ccc2c(c1)B(O)OC2)NC(=O)c1cc(B(O)O)cc([N+](=O)[O-])c1 [Example 4, (S)-(3-((1-amino-3-(1-hydroxy-1,3-dihydrobenzo[c][1,2]oxaborole-6-carboxamido)-1-oxopropan-2-yl)carbamoyl)-5-nitrophenyl)boronic acid]
2.2 mM | 32 mM | – | – | – | – | NC(=O)[C@H](CNC(=O)c1sccc1B(O)O)NC(=O)c1sccc1B(O)O [Example 8, (S)-(2-((1-amino-3-(3-boronothiophene-2-carboxamido)-1-oxopropan-2-yl)carbamoyl)thiophen-3-yl)boronic acid]
2 mM | 3.7 mM | 58 mM | – | – | – | O=C(O)CNC(=O)[C@@H]1C[C@H](NC(=O)c2ccc3c(c2)B(O)OC3)CN1C(=O)c1ccc2c(c1)B(O)OC2 [Example 2, ((2S,4S)-1-(1-hydroxy-1,3-dihydrobenzo[c][1,2]oxaborole-6-carbonyl)-4-(1-hydroxy-1,3-dihydrobenzo[c][1,2]oxaborole-6-carboxamido)pyrrolidine-2-carbonyl)glycine]
1.9 mM | 14 mM | 48 mM | – | – | – | O=C(O)CNC(=O)[C@@H]1C[C@H](NC(=O)c2ccc3c(c2)B(O)OC3)CN1C(=O)c1cc(B(O)O)ccc1[N+](=O)[O-] [Example 3, ((2S,4S)-1-(5-borono-2-nitrobenzoyl)-4-(1-hydroxy-1,3-dihydrobenzo[c][1,2]oxaborole-6-carboxamido)pyrrolidine-2-carbonyl)glycine]
6.5 mM | 88.6 mM | 53.5 mM | – | – | – | O=C(O)CN(Cc1cccc(CNC(=O)c2ccc(F)c(B(O)O)c2)c1)C(=O)c1ccc(F)c(B(O)O)c1 [Example 17, N-(3-((3-borono-4-fluorobenzamido)methyl)benzyl)-N-(3-borono-4-fluorobenzoyl)glycine]

The remaining lines, values behind:

Compound | Kd [1] | Kd [2] | Kd [3] | increase in affinity to glucose [2, 4] | increase in affinity to fructose [1, 4] | increase in affinity to lactate [3, 4]
O=C(O)CN(Cc1cccc(CNC(=O)c2cc(B(O)O)cc([N+](=O)[O-])c2)c1)C(=O)c1cc(B(O)O)cc([N+](=O)[O-])c1 [Example 13, N-(3-((3-borono-5-nitrobenzamido)methyl)benzyl)-N-(3-borono-5-nitrobenzoyl)glycine] | 17.8 mM | – | – | – | – | –
NC(=O)[C@H](CNC(=O)c1cc2c(c(C(F)(F)F)c1)COB2O)NC(=O)c1cc(B(O)O)cc([N+](=O)[O-])c1 [Example 6, (S)-(3-((1-amino-3-(1-hydroxy-4-(trifluoromethyl)-1,3-dihydrobenzo[c][1,2]oxaborole-6-carboxamido)-1-oxopropan-2-yl)carbamoyl)-5-nitrophenyl)boronic acid] | 4.6 mM | 3.4 mM | 74.1 mM | – | – | –
NC(=O)CN(C(=O)c1ccc2c(c1)B(O)OC2)[C@@H]1CCCC[C@H]1NC(=O)c1ccc2c(c1)B(O)OC2 [Example 14, N-(2-amino-2-oxoethyl)-1-hydroxy-N-((1R,2R)-2-(1-hydroxy-1,3-dihydrobenzo[c][1,2]oxaborole-6-carboxamido)cyclohexyl)-1,3-dihydrobenzo[c][1,2]oxaborole-6-carboxamide] | 5.88 mM | 1.64 mM | 59.8 mM | – | – | –
O=C(O)CN(CCCNC(=O)c1ccc(B(O)O)c(F)c1)C(=O)c1ccc(B(O)O)c(F)c1 [Example 19, N-(3-(4-borono-3-fluorobenzamido)propyl)-N-(4-borono-3-fluorobenzoyl)glycine] | 2.87 mM | 43 mM | 31 mM | – | – | –
O=C(O)CN(CCCNC(=O)c1cc(B(O)O)cc([N+](=O)[O-])c1)C(=O)c1cc(B(O)O)cc([N+](=O)[O-])c1 [Example 9, N-(3-(3-borono-5-nitrobenzamido)propyl)-N-(3-borono-5-nitrobenzoyl)glycine] | 10.6 mM | 6.5 mM | – | – | – | –
NC(=O)[C@H](CNC(=O)c1cc(B(O)O)ccc1[N+](=O)[O-])NC(=O)c1cc(B(O)O)ccc1[N+](=O)[O-] [Example 5, (S)-(3-((1-amino-3-(5-borono-2-nitrobenzamido)-1-oxopropan-2-yl)carbamoyl)-4-nitrophenyl)boronic acid] | 11 mM | 29.4 mM | – | – | – | –
O=C(O)CN(Cc1ccc(CNC(=O)c2cc(B(O)O)cc([N+](=O)[O-])c2)cc1)C(=O)c1cc(B(O)O)cc([N+](=O)[O-])c1 [Example 12, N-(4-((3-borono-5-nitrobenzamido)methyl)benzyl)-N-(3-borono-5-nitrobenzoyl)glycine] | 12.1 mM | – | – | – | – | –
O=C(O)CN(CCCCCNC(=O)c1ccc(B(O)O)c(F)c1)C(=O)c1ccc(B(O)O)c(F)c1 [Example 20, N-(S-(4-borono-3-fluorobenzamido)pentyl)-N-(4-borono-3-fluorobenzoyl)glycine] | 5.86 mM | 30.4 mM | 70.3 mM | – | – | –
O=C(O)CN(CCCNC(=O)c1ccc(F)c(B(O)O)c1)C(=O)c1ccc(F)c(B(O)O)c1 [Example 15, N-(3-(3-borono-4-fluorobenzamido)propyl)-N-(3-borono-4-fluorobenzoyl)glycine] | 4.8 mM | 59 mM | 51.6 mM | – | – | –
O=C(O)CN(CCCCNC(=O)c1cc(B(O)O)cc([N+](=O)[O-])c1)C(=O)c1cc(B(O)O)cc([N+](=O)[O-])c1 [Example 10, N-(4-(3-borono-5-nitrobenzamido)butyl)-N-(3-borono-5-nitrobenzoyl)glycine] | 11.5 mM | 99.8 mM | – | – | – | –
O=C(O)CN(CCCCCNC(=O)c1cc(B(O)O)cc([N+](=O)[O-])c1)C(=O)c1cc(B(O)O)cc([N+](=O)[O-])c1 [Example 11, N-(5-(3-borono-5-nitrobenzamido)pentyl)-N-(3-borono-5-nitrobenzoyl)glycine] | 24.7 mM | – | – | – | – | –
